Measured values: ChEMBL document CHEMBL3639272, “2-morpholino-pyrido[3,2-D]pyrimidines” (2013)

Molecular target: Phosphatidylinositol 4,5-bisphosphate 3-kinase catalytic subunit alpha isoform (Homo sapiens, UniProt P42336)
Experiment: Biological Assays: The efficacy of compounds of the invention in inhibiting the PI3K induced-lipid phosphorylation may be tested in the following binding assay. The assay combines the scintillation proximity assay technology (SPA, Amersham) with the capacity of neomycin (a polycationic antibiotic) to bind phospholipids with high affinity and specificity. The Scintillation Proximity Assay is based on the properties of weakly emitting isotopes (such as 3H, 125I, 33P). Coating SPA beads with neomycin allows the detection of phosphorylated lipid substrates after incubation with recombinant PI3K and radioactive ATP in the same well, by capturing the radioactive phospholipids to the SPA beads through their specific binding to neomycin.

Sequence of Phosphatidylinositol 4,5-bisphosphate 3-kinase catalytic subunit alpha isoform (P42336 whole entry, canonical isoform): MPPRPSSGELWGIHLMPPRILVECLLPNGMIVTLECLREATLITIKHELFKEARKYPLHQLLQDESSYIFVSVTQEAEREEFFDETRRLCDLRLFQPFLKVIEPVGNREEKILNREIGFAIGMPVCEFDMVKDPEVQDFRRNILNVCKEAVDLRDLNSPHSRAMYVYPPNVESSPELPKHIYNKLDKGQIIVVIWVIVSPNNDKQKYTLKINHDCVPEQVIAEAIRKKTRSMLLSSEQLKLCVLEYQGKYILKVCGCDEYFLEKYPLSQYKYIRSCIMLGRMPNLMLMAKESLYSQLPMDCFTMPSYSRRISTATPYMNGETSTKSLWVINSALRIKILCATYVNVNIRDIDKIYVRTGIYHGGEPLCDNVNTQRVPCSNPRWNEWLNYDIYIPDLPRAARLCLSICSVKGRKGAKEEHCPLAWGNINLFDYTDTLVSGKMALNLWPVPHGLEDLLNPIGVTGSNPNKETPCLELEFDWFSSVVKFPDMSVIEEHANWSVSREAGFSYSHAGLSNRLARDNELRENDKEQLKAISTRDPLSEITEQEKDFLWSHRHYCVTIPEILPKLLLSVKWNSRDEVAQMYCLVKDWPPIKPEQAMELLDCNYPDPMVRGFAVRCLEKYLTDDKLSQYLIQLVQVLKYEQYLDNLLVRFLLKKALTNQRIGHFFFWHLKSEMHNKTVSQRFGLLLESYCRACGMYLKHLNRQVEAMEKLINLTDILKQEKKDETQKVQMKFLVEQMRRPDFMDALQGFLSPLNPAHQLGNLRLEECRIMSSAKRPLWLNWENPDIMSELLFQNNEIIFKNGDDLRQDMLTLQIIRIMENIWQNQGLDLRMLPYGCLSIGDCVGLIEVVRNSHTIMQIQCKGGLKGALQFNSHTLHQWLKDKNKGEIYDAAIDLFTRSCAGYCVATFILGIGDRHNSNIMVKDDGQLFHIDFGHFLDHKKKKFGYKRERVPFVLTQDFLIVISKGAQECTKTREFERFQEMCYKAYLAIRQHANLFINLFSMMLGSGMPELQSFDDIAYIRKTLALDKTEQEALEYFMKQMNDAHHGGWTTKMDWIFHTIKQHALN

IC50: 57 nM
Compound: O=C(O)c1cc(-c2cccc3ccccc23)c2nc(N3CCOCC3)nc(-c3cccc(O)c3)c2n1
